Earlier results on one substance are cited in patent US11589577B2, “Nanotechnology system for agricultural applications” (priority 2012, dated 2023).

For the series the following is noted: binds soil ions; stated as known issue.

For the substance abamectin, the “soil mobility (general statement)” value is “poor soil mobility”.
